Experimental data reported in patent US8586755B2, “Substituted nicotinamides as KCNQ2/3 modulators” (Grünenthal GmbH, priority 2009, dated 2013).

Molecular target: T1, KCNQ2/3 channels (Homo sapiens, UniProt O43525+O43526)
T1 construct: expressed in transfected cells
Experiment: Fluorescence assay using a voltage sensitive dye (fluorimetry)
Format: cell-based
Conditions: CHO-K1 cells expressing KCNQ2/3 channels; for EC50: agonistic activity; for Emax / Fluorimetry % efficacy (retigabine 50 μM = 100%): retigabine 50 μM = 100%; for Emax: read-out: Fluorimetry % efficacy (retigabine 50 μM = 100%)
Outline: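 CHO-K1 cells expressing human KCNQ2/3, loaded 45 min with red membrane-potential dye in ES buffer pH 7.4 (1 mM KCl), compound 30 min at room temperature. Fluorescence (525/560 nm) read before (F1) and at peak after KCl to 92 mM final (F2); agonism from F2/F1 change, EC50 fitted.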

Row | EC50 [nM] | Emax [%] | Fluorimetry % efficacy (retigabine 50 μM = 100%) [%] | SMILES
1 | 462 | 110 |  | O=C(NCc1cccs1)c1cccnc1SCCCCc1ccc(F)c(F)c1 [compound 110, 2-[4-(3,4-Difluoro-phenyl)-butylsulfanyl]-N-(thiophen-2-yl-methyl)-pyridine-3-carboxylic acid amide]
2 | 11100 | 61 |  | O=C(NCc1cccs1)c1cccnc1SCCCc1ccccn1 [compound 111, 2-(3-Pyridin-2-yl-propylsulfanyl)-N-(thiophen-2-yl-methyl)-pyridine-3-carboxylic acid amide]
3 | 494 |  | 104 | O=C(NCc1cccs1)c1ccc(N2CCCC2)nc1SCCCc1ccccc1 [compound 112]
4 | 5200 | 90 |  | Cc1ccc(CCCSc2ncccc2C(=O)NCc2cccs2)cc1C(F)(F)F [compound 113, 2-[3-[4-Methyl-3-(trifluoromethyl)-phenyl]-propylsulfanyl]-N-(thiophen-2-yl-methyl)-pyridine-3-carboxylic acid amide]
5 | 553 | 128 |  | O=C(NCc1cccs1)c1cccnc1SC1CCCC(c2ccccc2)C1 (centres unmarked) [compound 114, 2-[(3-Phenyl-cyclohexyl)sulfanyl]-N-(thiophen-2-yl-methyl)-pyridine-3-carboxylic acid amide]
6 | 42 |  | 213 | O=C(NCC1CC2CCC1C2)c1cccnc1SCCC(F)(F)c1ccc(F)cc1 (centres unmarked) [compound 115]
7 | 35 | 160 |  | O=C(NCC1CCCCCC1)c1cccnc1SCCC(F)(F)c1ccc(F)cc1 [compound 117, N-(Cycloheptyl-methyl)-2-[[3,3-difluoro-3-(4-fluorophenyl)-propyl]sulfanyl]-pyridine-3-carboxylic acid amide]
8 | 37 | 159 |  | O=C(NCc1cccs1)c1cccnc1SCCC(F)(F)c1ccc(F)cc1 [compound 118, 2-[[3,3-Difluoro-3-(4-fluorophenyl)-propyl]sulfanyl]-N-(thiophen-2-yl-methyl)-pyridine-3-carboxylic acid amide]
9 |  | 30 |  | O=C(NCC1CCc2ccccc2C1)c1cccnc1SCCCc1ccc(F)cc1 (centres unmarked) [compound 119, 2-[3-(4-Fluorophenyl)-propylsulfanyl]-N-(1,2,3,4-tetrahydro-naphthalen-2-yl-methyl)-pyridine-3-carboxylic acid amide]
10 | 307 | 61 |  | O=C(NCC1Cc2ccccc2C1)c1cccnc1SCCCc1ccc(F)cc1 [compound 120, N-(2,3-Dihydro-1H-inden-2-yl-methyl)-2-[3-(4-fluorophenyl)-propylsulfanyl]-pyridine-3-carboxylic acid amide]
11 | 256 | 99 |  | O=C(NCc1ccc2c(c1)OCO2)c1cccnc1SCCCc1ccc(F)cc1 [compound 121, N-(1,3-Benzodioxol-5-yl-methyl)-2-[3-(4-fluorophenyl)-propylsulfanyl]-pyridine-3-carboxylic acid amide]
12 | 153 | 94 |  | O=C(NCc1cccc(-c2ccccc2)c1)c1cccnc1SCCCc1ccc(F)cc1 [compound 122, 2-[3-(4-Fluorophenyl)-propylsulfanyl]-N-[(3-phenyl-phenyl)-methyl]-pyridine-3-carboxylic acid amide]
13 | 155 | 168 |  | CC1CCCC(CNC(=O)c2cccnc2SCCCc2ccc(F)cc2)C1 (centres unmarked) [compound 123, 2-[3-(4-Fluorophenyl)-propylsulfanyl]-N-[(3-methyl-cyclohexyl)-methyl]-pyridine-3-carboxylic acid amide]
14 | 1400 | 99 |  | CC(C)(C)C(=O)CNC(=O)c1cccnc1SCCCc1ccc(F)cc1 [compound 125, N-(3,3-Dimethyl-2-oxo-butyl)-2-[3-(4-fluorophenyl)-propylsulfanyl]-pyridine-3-carboxylic acid amide]
15 | 627 |  | 177 | CC(C)(C)C(O)CNC(=O)c1cccnc1SCCCc1ccc(F)cc1 (centres unmarked) [compound 126]
